Reference: the NIST ThermoML archive (doi:10.1016/j.jct.2018.12.016)
Numbers after ± are expanded uncertainties.

Details: 298.15 K, Liquid; for mass density: 101.33 kPa, Pycnometric method; for vapor or sublimation pressure: Manometric method

Compound	mass density [kg/m3]	vapor or sublimation pressure [kPa]
COC(=O)OC [dimethyl carbonate]	1063 ± 2	7.256 ± 0.12
CCCCOC(=O)c1ccccc1C(=O)OCCCC [dibutyl phthalate]	1042 ± 2	–
CC#N [acetonitrile]	776 ± 2	11.81 ± 0.16
C[S+](C)[O-] [dimethyl sulfoxide]	1096 ± 3	0.08 ± 0.078
[Hg] [mercury]	13530 ± 30	–
